This is an account of results in patent US20240182407A1, “QUINOLINE COMPOUND SALT OR CRYSTAL FORM, PREPARATION METHOD THEREFOR, AND APPLICATION THEREOF” (Nanjing Zenshine Pharmaceuticals Co., Ltd., priority 2021, published 2024).

Values after ≈ are worked out from the molar mass of the structure shown. Values joined by “and” are separate entries in the source; they are usually repeats but may differ in a detail not shown here. Identical values can stand only once.

Data set [1] in a line: Solubility in simulated gastrointestinal fluids (SGF, FeSSIF, FaSSIF) at 37° C. The data set is classed as physicochemical. Particulars: for Solubility: 37° C. As for the experimental part:
The solubilities of Compound A and p-toluenesulfonate (Sample 5, crystal form I) in simulated gastrointestinal fluids (SGF, FeSSIF and FaSSIF) at 37° C. were tested.
About 7.5 mg of Compound A and p-toluenesulfonate were separately added to 1.5 mL of three biological vehicles to prepare suspensions. All the suspensions were placed in a shaker at 37° C. and shaken at 200 rpm for 24 h, and about 0.5 mL was sampled separately at 0.5 h, 2 h and 24 h for filtration. The obtained filtrates were subjected to HPLC analysis and pH measurement, and the filter cakes were respectively measured by XRPD.

Data set [2] in a line: Solid stability, 40° C./75% RH and 60° C., one week (HPLC purity, XRPD). The data set is classed as physicochemical. The settings on record: solid. On the procedure: Appropriate amounts of Compound A and p-toluenesulfonate of Compound A (Sample 5, crystal form I) were respectively placed in 40° C./75% RH and 60° C. environments for one week to determine solid stability. At days 0 and 7, HPLC purity analysis and solid XRPD determination were carried out, and some of the results were as shown in Table 7.

Data set [3] has as its system human-derived lymphoma DoHH-2 cell line. The experiment in a line: Human-derived lymphoma DoHH-2 subcutaneous xenograft in CB17/SCID female immunodeficient mice. The data set is classed as in vivo, mouse. Particulars: 50 mg/kg p.o. BID, Day 24. On the procedure: In Example 8, the anti-tumor effects of p-toluenesulfonate of Compound A at various dosages by intragastric administration on human-derived lymphoma DoHH-2 cell line subcutaneous transplantation CB17/SCID female immunodeficient mouse model were evaluated.
7-9-week-old CB17/SCID female immunodeficient mice were subcutaneously inoculated with […] DoHH-2 cells to establish a subcutaneous human lymphoma xenograft tumor model. When the average tumor volume in the mice reached 68 mm^3, the mice were randomly divided into groups and dosed on the day of grouping. The treatment method for each treatment group and vehicle control group was as follows:
p-toluenesulfonate of Compound A (Sample 6), given 100 mg/kg (p.o. QD) group, once daily, for 25 days (days 0-24);
p-toluenesulfonate of Compound A (Sample 6), given 30 mg/kg (p.o. QD) group, once daily, for 25 days (days 0-24);
positive treatment group (Duvelisib, purchased from Shanghai Lollane biological technology Co., Ltd.), given 50 mg/kg (p.o. BID) twice daily with an interval of 12 h, for 24 days; and
vehicle control group (5% DMSO/40% PEG400/55% water, by volume) (p.o. QD), given once daily, for 25 days (days 0-24).
There were 10 mice in each group, and all the mice were administered starting on the day of grouping (Day 0) and euthanized on Day 24 after grouping (Day 24). The efficacy was evaluated according to the tumor volume at the end point of the experiment.
The abbreviation p.o. stood for oral gavage, QD stood for once daily, and BID stood for twice daily.
The relative tumor inhibition rate (TGI) was calculated by the following formula: […]
T and C were respectively the average tumor volumes in the experimental group and the vehicle control group at a specific time point.
For orientation: Xenograft models place foreign cells or tissue in a host animal.

Turning to `C[C@H](Nc1nc(N)nc(N)c1C#N)c1cc2ccc(F)cc2nc1-c1ccccn1` [Compound A], the pH of filtrate in data set [1] (FaSSIF (pH 6.52), 0.5 h) is recorded as 6.55; in data set [1] (FaSSIF (pH 6.52), 2 h), 6.51; in data set [1] (FaSSIF (pH 6.52), 24 h) it was 6.34; in data set [1] (FeSSIF (pH 4.99), 0.5 h) it was 5.00; in data set [1] (FeSSIF (pH 4.99), 2 h), 4.94; in data set [1] (FeSSIF (pH 4.99), 24 h), 4.86. The pH of filtrate in data set [1] (SGF (pH 1.21), 0.5 h) is 1.19; in data set [1] (SGF (pH 1.21), 2 h) it was 1.16; in data set [1] (SGF (pH 1.21), 24 h), 1.18. The same compound yielded a solubility at 30 min in data set [1] (FaSSIF, 37 °C, pH 6.52, fassif, thermodynamic from solid, FaSSIF (pH 6.52), 30 min) of 370 µg/mL (≈ 924 µM). This compound also displayed a solubility at 2 h in data set [1] (FaSSIF, 37 °C, pH 6.52, fassif, thermodynamic from solid, FaSSIF (pH 6.52), 2 h) of 320 µg/mL (≈ 799 µM). The same compound displayed a solubility at 24 h in data set [1] (FaSSIF, 37 °C, pH 6.52, fassif, thermodynamic from solid, FaSSIF (pH 6.52), 24 h) of 350 µg/mL (≈ 874 µM). Further, the Solubility is 2060 µg/mL (≈ 5140 µM) in data set [1] (FeSSIF (pH 4.99), 30 min); 1890 µg/mL (≈ 4720 µM) in data set [1] (FeSSIF (pH 4.99), 2 h); 2200 µg/mL (≈ 5490 µM) in data set [1] (FeSSIF (pH 4.99), 24 h); above 4920 µg/mL in data set [1] (SGF (pH 1.21), 30 min); above 4910 µg/mL in data set [1] (SGF (pH 1.21), 2 h); above 4830 µg/mL in data set [1] (SGF (pH 1.21), 24 h). Further, the “Purity (peak area %) Average - 40° C./75% RH - 7 d” value in data set [2] (40° C./75% RH, 7 d, average) was 98.49 peak area %. Moreover, the “Purity (peak area %) 40° C./75% RH - 7 d” value in data set [2] (40° C./75% RH, 7 d, single determinations) was 98.52 peak area % and 98.45 peak area %. The “Purity (peak area %) Average - 60° C. - 7 d” value in data set [2] (60° C., 7 d, average) came out at 98.43 peak area %. For the same compound, the “Purity (peak area %) 60° C. - 7 d” value in data set [2] (60° C., 7 d, single determinations) is 98.37 peak area % and 98.50 peak area %. In addition, in data set [2] (60° C., 7 days), the “decrease of chemical purity” value was “about 0.16%”. Besides, the “Purity (peak area %) Average - 0 d” value in data set [2] (day 0, average) amounted to 98.59 peak area %. Also, in data set [2] (day 0, single determinations), the “Purity (peak area %) 0 d” value was 98.63 peak area % and 98.55 peak area %.
Regarding `C[C@H](Nc1ncnc2nc[nH]c12)c1cc2cccc(Cl)c2c(=O)n1-c1ccccc1` [Duvelisib, reference compound], in data set [3], the average tumor volume was determined as 1496.12 mm^3 and the “relative tumor inhibition rate (TGI)” value is given as 30%.

As usually defined, the solubility is the concentration that dissolves in the medium under given conditions. The term Solubility denotes how much of the substance goes into solution per volume.
